Literature values, collected in US10188693B2, “Methods for treatment of atherosclerosis” (Stealth BioTherapeutics Corp, priority 2012, dated 2019).

Key:
hepatitis C virus (HCV) = conditions: in vitro model of HCV infection (alone and with interferon); cited from earlier work
[1] = tested on: spinal cord injury in rodents; conditions: administered both pre- and post-injury; cited from earlier work

Row | Compound | anti-HCV effect, in words (hepatitis C virus (HCV)) | effect on spinal cord injury, in words [1]
1 | O=C(O)C[C@H](O)C[C@H](O)/C=C/c1c(C2CC2)nc2ccccc2c1-c1ccc(F)cc1 [pitavastatin] | anti-HCV effect | 
2 | CC[C@H](C)C(=O)O[C@H]1C[C@@H](C)C=C2C=C[C@H](C)[C@H](CC[C@@H]3C[C@@H](O)CC(=O)O3)[C@H]21 [lovastatin] | anti-HCV effect | 
3 | CC(C)c1c(C(=O)Nc2ccccc2)c(-c2ccccc2)c(-c2ccc(F)cc2)n1CC[C@@H](O)C[C@@H](O)CC(=O)O [atorvastatin] | anti-HCV effect | promoting locomotion and tissue sparing, as well as reducing inflammation
